Source: patent publication US5922677A, “Therapeutic method and compounds of use therein” (Auckland UniServices Limited, priority 1994, dated 1999)
Counter-ions that a name gives are not always drawn. No end group written: not given here.

Assays:
[1] = tested on: osteoblast-like cells from fetal rat calvariae; experiment: Numbers of osteoblast-like cells in culture; assay type: cell-based; details: for effect on cell number (osteoblast proliferation): growth-arrested cultures, 24 hours
Source text: Cells were either (a) growth-arrested as a result of being cultured in the presence of 0.1% bovine serum albumin or (b) were actively growing in culture medium containing 2% fetal calf serum. n=6 in each group. Data are mean ± sem. Statistical significance (by Student's test) of differences from control: *p≤0.05; **p<0.005; ***p<0.001.

[2] = tested on: osteoblast-like cells from fetal rat calvariae; experiment: Numbers of osteoblast-like cells in culture; assay type: cell-based; details: for Osteoblast Numbers after 24 h culture: mean ± SD
calvariae of adult mice = experiment: In vivo calvarial study, local injection over hemicalvaria, histomorphometry; details: 4.1×10^-9 mol daily for 5 days over right hemicalvaria
Source text: FIG. 4 Comparison of the in vivo effects of rat amylin, rat calcitonin (CT) and rat CGRP in adult mice. The daily dose of each peptide was 4.1×10^-9 mol. Data are expressed as the ratio of each index measured in the injected hemicalvaria to that measured in the contralateral, uninjected hemicalvaria. n=5 in each group. Data are mean ± sem. Significant differences (p<0.05) between the injected and uninjected hemicalvariae are indicated by asterisks.
The effects of the peptides on bone histology in vivo were assessed by subcutaneously injecting the peptide daily for 5 days over the periosteum of the right hemicalvaria of adult, male Swiss-Webster mice. The animals were sacrificed 1 week following the last injection. Non-decalcified sections of the calvariae were prepared as described previously, Cornish, J., Callon, K., King, A., Edgar, S., and Reid, I. R. (1993) Endocrinology 132, 1359-1366. Quantitative histomorphometry was performed by an operator blinded to the treatment each animal had received. Data are expressed as the ratio of each index measured in the injected hemicalvaria to that measured in the contralateral, uninjected hemicalvaria of the same animal and have been evaluated by paired t tests.

[3] = tested on: osteoblast-like cells from fetal rat calvariae; experiment: Thymidine incorporation into osteoblast-like cells; assay type: cell-based; details: time-course (FIG. 3), medium with 0.1% bovine serum albumin
Procedure: FIG. 3 The effect of rat amylin on thymidine incorporation into osteoblast-like cells from fetal rat calvariae. Statistical significance of differences from control at each time-point: *p=0.002; **p<0.001. In both experiments the culture medium contained 0.1% bovine serum albumin. n=6 in each group. Data are mean ± sem.
Osteoblast-like cells were prepared by sequential collagenase digestion of calvariae from 20 day fetal rats, as described previously, Lowe, C., Cornish, J., Callon, K, Martin, T. J., and Reid, I. R. (1991) J. Bone Miner. Res. 6, 1277-1283.

mouse calvaria = experiment: Systemic in vivo experiment, calvarial histomorphometry; design: species or system mice
Procedure: We have also conducted the following systemic in vivo experiment where amylin at a concentration of 10^-8 M is injected subcutaneously.
Calvarial Histomorphometry
11 mice in each treatment group.
Differences between control and amylin groups were statistically tested using an unpaired Student t test.
Measurements are recorded per mm calvarial length.

[4] = injected vs uninjected hemicalvaria
[5] = systemic test, summary in words

## O=C(O)C(F)(F)F [TFA, trifluoroacetic acid]
[1]; 4×10^-8 M, exposed for 24 hrs, control 5.6±0.3×10^4
  cell numbers: 4.2±0.3×10^4

## Amylin, TFA Salt: amylin as trifluoroacetic acid salt, generally the tetra-TFA salt, as isolated by HPLC (KCNTATCATQRLANFLVHSSNNFGAILSSTNVGSNTY; not fully specified (C-terminus, bridges); cysteine pairing not given here; also: trifluoroacetate salt; UniProt P10997 34-70, looked up)
[2]; 10^-8 M, control 4.6 ± 0.64
  Osteoblast Numbers after 24 h culture: 5.6 ± 0.96 10^4 cells/well

## Amylin, chloride salt: amylin salt prepared by dissolving peptide in 3 mM hydrochloric acid and freeze-drying (KCNTATCATQRLANFLVHSSNNFGAILSSTNVGSNTY; not fully specified (C-terminus, bridges); cysteine pairing not given here; also: chloride salt; UniProt P10997 34-70, looked up)
[2]; 10^-8 M, control 4.6 ± 0.64
  Osteoblast Numbers after 24 h culture: 7.9 ± 1.00 10^4 cells/well

## CGRP: rat calcitonin gene-related peptide-1, a peptide related to amylin (SCNTATCVTHRLAGLLSRSGGVVKDNFVPTNVGSEAF; not fully specified (C-terminus, bridges); cysteine pairing not given here; UniProt P01256 83-119, looked up)
[1]; dose-response (FIG. 1a)
  effect on cell number (osteoblast proliferation): increased osteoblast proliferation, but the effect was smaller and only significant at 10^-8 M

## Rat calcitonin: rat calcitonin peptide, comparator (CGNLSTCMLGTYTQDLNKFHTFPQTSIGVGAP; ends and bridges not checked; cysteine pairing not given here; UniProt P01257 85-116, looked up) [reference compound]
Calvariae of adult mice
  eroded surface: reduced eroded surface to a similar extent to amylin
Calvariae of adult mice; non-significant
  mineralized bone area increase: 4%
[1]; 10^-9 -10^-7 M
  effect on cell number (osteoblast proliferation): without effect

## amylin: 37-amino acid peptide cosecreted with insulin from pancreatic beta cells; species not printed at place (rat amylin per FIG. 1-4 legends)
[3]
  DNA synthesis assessed by thymidine incorporation: sustained increase in DNA synthesis
Calvariae of adult mice; [4]
  bone resorption: decreases in bone resorption of comparable magnitude
  indices of bone formation: two- to three-fold increases
[2]; time-course 6 to 48 hours (FIG. 2)
  cell number over time: increased in amylin-treated cells from 6 to 48 hours
Mouse calvaria; [5]
  indices of bone formation compared to control: significant increases in all indices of bone formation
  indices of bone resorption compared to control: significant decreases in indices of bone resorption
Mouse calvaria; systemic, subcutaneous, 10^-8 M, mean, per mm calvarial length, control 0.0005
  osteoid area: 0.0018 mm^2
Mouse calvaria; systemic, subcutaneous, 10^-8 M, mean, per mm calvarial length, control 0.094
  osteoclast surface: 0.019 mm
Mouse calvaria; systemic, subcutaneous, 10^-8 M, mean, per mm calvarial length, control 0.294
  eroded surface: 0.081 mm
Mouse calvaria; systemic, subcutaneous, 10^-8 M, mean, per mm calvarial length, control 0.85
  osteoblast surface: 1.76 mm
Mouse calvaria; systemic, subcutaneous, 10^-8 M, mean, per mm calvarial length, control 3.6
  osteoclast number: 1.2
Mouse calvaria; systemic, subcutaneous, 10^-8 M, mean, per mm calvarial length, control 73.6
  osteoblast number: 147.5
[1]; actively growing cells (2% fetal calf serum, FIG. 1b)
  stimulation of osteoblast proliferation: also observed in actively growing cells
[1]; dose-response (FIG. 1a)
  effect on cell number (osteoblast proliferation): substantial, dose-related increase in cell number

## parathyroid hormone
[1]; 10^-8 M, at 24 hours
  reduced cell numbers: 18%

## rat amylin: rat form of the 37-amino acid peptide amylin (KCNTATCATQRLANFLVRSSNNLGPVLPPTNVGSNTY; not fully specified (C-terminus, bridges); cysteine pairing not given here; UniProt P12969 38-74, looked up)
[2]; 10^-9 M, control 4.2 ± 0.6
  Osteoblast Numbers after 24 h culture: 5.9 ± 0.8 x10^4 cells/well

## salmon calcitonin
[1]; 10^-7 M
  effect on cell number (osteoblast proliferation): without effect
